Measured values published in US20200281897A1, “INDAZOLE DERIVATIVES FOR CANCER TREATMENT” (Servicio Andaluz de Salud, priority 2016, published 2020).
Like-named read-outs stand apart in the source and are kept apart here. Residues, ends and D or L forms follow the SMILES beside them. *: point of attachment. Cbz = O=C(OCc1ccccc1)*; CH2F = FC*

How the values were obtained:
Format in all cases: cell-based, human
myeloma cell lines = test: MTT cell viability assay, average over all myeloma cell lines; conditions: read-out: IC50 average
Description: (§1) In vitro studies were carried out using six different human MM cell lines, U266, RPMI8226, MM1S, MM1R, U266-LR7, and RPMI-LR5. For ex vivo assays, human primary cells from healthy donors and MM patients were used (Table 1). Human MM cell lines U266, RPMI8226, and MM1.S were acquired from ATCC and lines U266-LR7, RPMI-LR5, and MM1.R were kindly provided by Dr. Enrique Ocio (Hospital Universitario de Salamanca, Spain). The primary cells were obtained from bone marrow (BM) aspirates or peripheral blood (PB) samples, and the peripheral blood mononuclear cells (PBMCs) were isolated by Ficoll-Hypaque centrifugation and washed twice in phosphate buffered saline (PBS) containing 1% BSA. Hematopoietic stem cells and B and T lymphocytes were isolated from healthy PB donors by positive immunomagnetic separation using human MACS CD34+, CD19+, and CD3+ microbeads, respectively. MM plasma cells were obtained from the bone marrow (BM) of patients with an infiltration of cells of more than 30% (Table 1). The MM plasma cells were identified using CD138+, and were then distinguished from the other cell populations by flow cytometry using a suitable combination of antibodies: anti-human CD64-FITC, CD34-PE, CD56-APC, CD38-APC-H7, and CD45-Pacific Blue antibodies (BD Biosciences, San Jose, Calif.). All the cell lines were cultured in RPMI-1640 supplemented with 10% fetal bovine serum (FBS) and 1% penicillin/streptomycin, as recommended by the supplier. For human primary cells, the concentration of FBS was up to 20%.
(§2) The MM cell lines and primary cells were exposed to different doses of indazole compounds, and viability was evaluated at 18, 48, and 72 hours. Pretreatments with the ceramide synthesis inhibitor (FB1), pan-caspase (ZVAD-FMK), and CB antagonists (PGN-8, PGN-37, and PGN-70) were performed for 30 minutes, and then the cells were incubated with indazole compound WIN-55 up to 18 hours. Cell viability was determined using the MTT assay Cell Counting Kit-8 (Dojindo, Kumamoto, Japan) according to the manufacturer's instructions.

U266 [1] = test: MTT cell viability assay, myeloma cell line U266; conditions: read-out: IC50, cell viability
Description: as §1, §2

MM1R = test: MTT cell viability assay, myeloma cell line MM1R; conditions: read-out: IC50, cell viability
Description: as §1, §2

U266-LR7 = test: MTT cell viability assay, myeloma cell line U266-LR7; conditions: read-out: IC50, cell viability
Description: as §1, §2

RPMI-LR5 = test: MTT cell viability assay, myeloma cell line RPMI-LR5; conditions: read-out: IC50, cell viability
Description: as §1, §2

RPMI8226 = test: MTT cell viability assay, myeloma cell line RPMI; conditions: read-out: IC50, cell viability
Description: as §1, §2

MM1S = test: MTT cell viability assay, myeloma cell line MM1S; conditions: read-out: IC50, cell viability
Description: as §1, §2

U266 and RPMI cell lines = test: Pretreatment with antagonists/inhibitors before WIN-55, MTT viability; conditions: for effect of inhibitor on WIN-55-induced apoptosis / loss of viability: WIN-55 at suboptimal concentrations, 18 hours; for effect of preincubation with CB2 antagonist on pro-apoptotic effect induced by WIN-55: 30 minutes pretreatment, then WIN-55 up to 18 hours
Description: as §2

HL60 and KG-1a = test: Antagonists/inhibitors together with WIN-55,212-2, WST-1 viability in AML cells; conditions: WIN-55,212-2 10 μM, 18 hours; for effect of inhibitor on cannabinoid-induced loss of viability: WST-1; for effect of CB2 antagonist on cannabinoid-induced apoptosis: HL60 and KG1-a
Description: The cell lines and primary cells were cultured in 96-well plates (5×10e5 cells per well) with the addition of the indicated concentrations of WIN 55,212-2 or PGN cannabinoids in DMSO or with the solvent only in triplicate at 18, 48, and 72 hours. Caspase inhibitor Z-VAD (OMe)-FMK or the CB2 receptor antagonist PGN-8, -37, and -70, together with the cannabinoid WIN-55,212-2, were also added. Cell viability was determined by means of the WST-1 assay [2-(4-iodophenyl)-3-(4-nitrophenyl)-5-(2,4-disulfophenyl)-2H-tetrazolium] according to the manufacturer's instructions (Dojindo Molecular Technologies). Optical densities were measured at 450 nm using a Multiskan™ Go Microplate plate reader (Thermo Fisher Scientific, Waltham, Mass., USA).

U266 [2] = test: Western blot and immunofluorescence in U266 cells; conditions: U266, 50 μM fumonisin B1
Description: The extracts for Western blot were taken after 0, 2, 6, 18, and 24 hours. The cells were lysed according to Gilbert et al., 2002. (J Immunol Methods. 2002, 271:185-201), by adding 2% ASB-14 (Calbiochem, Beeston, United Kingdom) to the isotonic lysis buffer. The protein concentration was determined by Pierce® Microplate BCA Protein Assay kit-Reducing Agent Compatible (Pierce, Rockford, Ill.). The samples were subjected to SDS/PAGE in AnykD precast gels (Bio Rad, Hercules, Calif.) and transferred to PVDF membranes using Trans-Blot® Turbo™ System (Bio-Rad). The membranes were incubated over night at 4° C. with primary antibody in 0.05% Tween 20-Tris buffered saline (TTBS) then with the suitable secondary antibody, and they were subjected to chemiluminescence detection. As a control condition, the cells were treated with DMSO (<0.15%) in RPMI 1640 medium from Gibco (Gaithersburg, Md.).
The antibodies for caspase-2, -8, -9, active caspase-3, -p-Akt (phospho T308), p-Erk (T202+Y204), -p-p38MAPK (phospho T180+Y182), -p-JNK (phospho T183+Y185), -SPT, and the CB1 and CB2 receptors were from Abcam, anti-MCL-1 and -Bcl-xL were from Santa Cruz Biotechnology, anti-PARP was from Cell Signaling Technology, anti-Bax and -Bak were from BD Biosciences. Anti-beta-tubulin was from Sigma-Aldrich. All the horseradish peroxidase (HRP)-conjugated secondary antibodies used were from Jackson ImmunoResearch and produced in a donkey to prevent the possible cross-reactivity when several tests were performed.
The cells treated for 6 hours with indazole compounds were collected and placed on a slide. Immunofluorescence staining was performed as described previously by Vielhaber et al. 2001 (Glycobiology. 2001, 11:451-7) using anti-ceramide as the primary antibody. The ceramide antibody was obtained from Sigma-Aldrich, and the Alexa-488-conjugated secondary antibody was obtained from Abcam. As a control condition, the cells were treated with DMSO (<0.15%) in RPMI 1640 medium from Gibco (Gaithersburg, Md.).

[3] = test system: lymphocytic T-cells (CD3+) and B-cells (CD19+); test: Viability of T and B lymphocytes from healthy donors (MTT)
Description: as §1, with “The MM plasma cells were identified using CD138+, and were then distinguished from the other cell populations by flow cytometry using a suitable combination of antibodies: anti-human CD64-FITC, CD34-PE, CD56-APC, CD38-APC-H7, and CD45-Pacific Blue antibodies (BD Biosciences, San Jose, Calif.). All the cell lines were cultured in RPMI-1640 supplemented with 10% fetal bovine serum (FBS) and 1% penicillin/streptomycin, as recommended by the supplier. For human primary cells, the concentration of FBS was up to 20%.” left out
The MM cell lines and primary cells were exposed to different doses of indazole compounds, and viability was evaluated at 18, 48, and 72 hours. […] Cell viability was determined using the MTT assay Cell Counting Kit-8 (Dojindo, Kumamoto, Japan) according to the manufacturer's instructions.

HL60 = test: Western blot and immunocytofluorescence in HL60 cells; conditions: HL60, WIN-55,212-2 10 μM
Source text: The detailed methodology for analyzing mitochondrial membrane potential (APm), Western Blot analysis, and immunocytofluorescence analysis has been described elsewhere 29

[4] = Homo sapiens, average over the six myeloma cell lines, MTT, 18 hours
[5] = Homo sapiens, U-266, U266, MTT, 18 hours, doses 0-50 μM
[6] = Homo sapiens, MM.1R, MM1R, MTT, 18 hours, doses 0-50 μM
[7] = Homo sapiens, U266-LR7, MTT, 18 hours, doses 0-50 μM
[8] = Homo sapiens, RPMI-LRS, MTT, 18 hours, doses 0-50 μM
[9] = Homo sapiens, RPMI-8226, RPMI, MTT, 18 hours, doses 0-50 μM

For `Nc1ccc2c(c1)c(OCc1cccc3ccccc13)nn2CCN1CCCCC1` [PGN72, 5-amino-3-(1-naphthylmethoxy)-1-(2-piperidinoethyl)indazole], the IC50 (myeloma cell lines; [4]) was 25.7 µM, the IC50 (U266 [1]; [5]) was 21.2 µM and the IC50 (MM1R; [6]) was 26.7 µM. It also gave an IC50 (U266-LR7; [7]) of 20.6 µM, an IC50 (RPMI-LR5; [8]) of 41.4 µM and an IC50 (RPMI8226; [9]) of 19.6 µM. It also gave an IC50 (MM1S; Homo sapiens, MM1.S, MM1S, MTT, 18 hours, doses 0-50 μM) of 24.8 µM.
With `CCCC[C@@H](C)[C@@H](OC(=O)C[C@@H](CC(=O)O)C(=O)O)[C@H](C[C@@H](C)C[C@H](O)CCCC[C@@H](O)C[C@H](O)[C@H](C)N)OC(=O)C[C@@H](CC(=O)O)C(=O)O` [FB1, Fumonisin B1] the “effect of inhibitor on WIN-55-induced apoptosis / loss of viability” value (U266 and RPMI cell lines) was “significantly reverses the effect”, the “effect of inhibitor on cannabinoid-induced loss of viability” value (HL60 and KG-1a) was “only partially prevented” and the “effect on PARP fragmentation induced by WIN-55” value (U266 [2]) was “considerably prevented the PARP fragmentation”.
Work on `Nc1ccc2c(c1)c(OCc1ccc3ccccc3c1)nn2CCN1CCCCC1` [PGN34, 5-amino-3-(2-naphthylmethoxy)-1-(2-piperidinoethyl)indazole] yielded an IC50 (myeloma cell lines; Homo sapiens, 18 h) of 20.2 µM, an IC50 (U266 [1]; Homo sapiens, U-266, 18 h) of 26.9 µM and an IC50 (MM1R; Homo sapiens, MM.1R, 18 h) of 21 µM. For the same compound, the IC50 (U266-LR7; Homo sapiens, 18 h) was 17.8 µM, the IC50 (RPMI-LR5; Homo sapiens, 18 h) was 23.2 µM and the IC50 (RPMI8226; Homo sapiens, RPMI-8226, 18 h) was 15.4 µM. The IC50 (MM1S; Homo sapiens, MM1.S, 18 h) was 17.1 µM.
`O=[N+]([O-])c1ccc2[nH]nc(OCc3cccc4ccccc34)c2c1` [PGN-70, 3-(1-naphthylmethoxy)-5-nitro-1H-indazole] was tested, and the “effect of preincubation with CB2 antagonist on pro-apoptotic effect induced by WIN-55” value (from here on “effect of preincubation”) (U266 and RPMI cell lines) was “considerably inhibited” and the “effect of CB2 antagonist on cannabinoid-induced apoptosis” value (“effect of CB2 antagonist” below) (HL60 and KG-1a) was “significantly inhibiting cannabinoid-induced apoptosis”.
With `c1ccc2c(COc3nn(CCN4CCCC4)c4ccccc34)cccc2c1` [PGN17] the IC50 (myeloma cell lines; average over the six myeloma cell lines, MTT, 18 hours) was 29.7 µM, the IC50 (U266 [1]; U266, MTT, 18 hours, doses 0-50 μM) was 20.7 µM and the IC50 (MM1R; MM1R, MTT, 18 hours, doses 0-50 μM) was 20.5 µM. The IC50 (U266-LR7; U266-LR7, MTT, 18 hours, doses 0-50 μM) was 51 µM, the “viability of the lymphocytes” value ([3]; healthy donors, doses with antiproliferative effect on MM cell lines) was “did not affect the viability of the lymphocytes” and the IC50 (RPMI-LR5; RPMI-LRS, MTT, 18 hours, doses 0-50 μM) was 21.7 µM. For the same compound, the IC50 (RPMI8226; RPMI, MTT, 18 hours, doses 0-50 μM) was 19.9 µM and the IC50 (MM1S; MM1S, MTT, 18 hours, doses 0-50 μM) was 44.6 µM.
For `c1ccc2c(COc3nn(CCN4CCCCC4)c4ccccc34)cccc2c1` [PGN6, 3-(1-naphthylmethoxy)-1-(2-piperidinoethyl)indazole], the IC50 (myeloma cell lines; [4]) was 29.7 µM, the IC50 (U266 [1]; [5]) was 25.4 µM and the IC50 (MM1R; [6]) was 18.6 µM. The IC50 (U266-LR7; [7]) was 78.2 µM, the “viability of the lymphocytes” value [3] was “did not affect the viability of the lymphocytes” and the IC50 (RPMI-LR5; [8]) was 13.7 µM. The IC50 (RPMI8226; [9]) was 14.4 µM.
`COc1ccc(COc2n[nH]c3ccc([N+](=O)[O-])cc23)cc1` [PGN-37, 3-(4-methoxybenzyloxy)-5-nitro-1H-indazole] was tested, and the “effect of preincubation” value (U266 and RPMI cell lines) was “considerably inhibited” and the “effect of CB2 antagonist” value (HL60 and KG-1a) was “significantly inhibiting cannabinoid-induced apoptosis”.
In the case of `Cn1nc(OCc2cccc3ccccc23)c2cc([N+](=O)[O-])ccc21` [PGN-8, 1-methyl-3-(1-naphthylmethoxy)-5-nitroindazole], the “effect of preincubation” value (U266 and RPMI cell lines) is reported as “considerably inhibited” and the “effect of CB2 antagonist” value (HL60 and KG-1a) is reported as “significantly inhibiting cannabinoid-induced apoptosis”.
For `CCCCCCC(=O)CCCCCC/C=C/C[C@@H](O)[C@H](O)[C@@](N)(CO)C(=O)O` [myriocin, Myriocin], the “effect on PARP fragmentation and Casp 3 cleavage induced by WIN-55,212-2” value (HL60) was “prevented the fragmentation of PARP and the cleavage of Casp 3”.
`COC(=O)C[C@H](NC(=O)[C@H](C)NC(=O)[C@@H](NC(=O)OCc1ccccc1)C(C)C)C(=O)CF` [Z-VAD-FMK] (Cbz-Val-Ala-Asp(OMe)-CH2F) was tested, and the “effect of inhibitor on WIN-55-induced apoptosis / loss of viability” value (U266 and RPMI cell lines) was “prevented the apoptosis” and the “effect of inhibitor on cannabinoid-induced loss of viability” value (HL60 and KG-1a) was “abolished”.
